Key:
[1] = biological target: T1, L-selectin-Ig (Homo sapiens, UniProt P14151); assay: Binding inhibition assay (ELISA), biotinylated versican to L-selectin-Ig, various concentrations; details: dose-dependent, FIG. 2 panel A
T1 construct: purchased R & D Systems Inc

[2] = system: P-selectin-Ig; assay: ELISA, biotinylated versican binding to P-selectin-Ig in presence of glycosaminoglycan; details: 100 μg/ml glycosaminoglycan; FIG. 5
Method: (§1) A well of a 96 well flat bottom microtiter plate was coated with BSA (5 μg/ml), anti-versican monoclonal antibody 2B1 (5 μg/ml), CD44-Ig (7 μg/ml), L-selectin-Ig (3 μg/ml), P-selectin-Ig (3 μg/ml) or chemokine (1 μg/ml), and then blocked with a phosphate buffered physiological saline containing 3% by weight of BSA. As the above chemokine, secondary lymphoid tissue chemokine, γ-interferon inducible protein-10, platelet factor 4, stromal cell-derived factor-1β [manufactured by Pepro Tech] and stromal cell-derived factor-1α [manufactured by Pepro Tech] were used.
(§2) Thereafter, the plate was washed with the buffer A, and enzyme-linked immunosorbent assay was performed in the same manner as that of the previous report [Kawashima, H. et al., J. Biol. Chem., 275, 35448-35456 (2000)]. Binding was determined by measuring absorbance at 620 nm using alkaline phosphatase-conjugated streptavidin and Blue Phos™ substrate. In FIG. 5, expression of an abscissa axis is the same as that of FIG. 4.

[3] = system: CD44-Ig; assay: ELISA, biotinylated versican binding to CD44-Ig in presence of glycosaminoglycan; set-up: species or system human; details: 100 μg/ml glycosaminoglycan; FIG. 5
Sequence of CD44-Ig (P16070 21-178 limits assumed): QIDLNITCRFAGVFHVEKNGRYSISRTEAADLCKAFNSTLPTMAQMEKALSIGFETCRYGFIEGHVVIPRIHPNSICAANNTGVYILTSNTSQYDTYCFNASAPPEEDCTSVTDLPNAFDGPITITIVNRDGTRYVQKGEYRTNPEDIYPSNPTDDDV
Method: as §1, §2

[4] = system: secondary lymphoid tissue chemokine; assay: Ca2+ mobilization in L1.2/CCR7 cells stimulated with SLC; format: cell-based; details: glycosaminoglycan 100 μg/ml; L1.2/CCR7 cells loaded with Fura-2; FIG. 8
Method: i) applying Fura-2 to stimulate to L1.2/CCR7 cell (1×10^6 cells/ml) with secondary lymphoid tissue chemokine in the presence or absence of the therapeutic or prophylactic agent (100 μg/ml) of the present invention, and
ii) measuring a fluorescent rate to monitor an intracellular calcium concentration according to the description of Hirose, J. et al. [J. Biol. Chem., 276, 5228-5234 (2001); all teachings of which are hereby incorporated by reference].
L1.2/CCR7 cells (1×10^6 cells/ml) were loaded with Fura-2, and then stimulated with secondary lymphoid tissue chemokine (“SLC” in FIG. 8) or C-terminal truncated secondary lymphoid tissue chemokine (“SLC-T” in FIG. 8), in the presence or absence of glycosaminoglycan (100 μg/ml). The intracellular calcium concentration was monitored by measuring a fluorescent rate in the same manner as described in the previous report [Hirose, J. et al., J. Biol. Chem., 276, 5228-5234 (2001)]. Chondroitin sulfate E (“CS E” in FIG. 8) and chondoroitin sulfate A (“CS A” in FIG. 8) were used as the glycosaminoglycan. In FIG. 8, an arrowhead indicates a time point at which stimulation was given.

T1 sequence (P14151 with tags, fused parts or gaps limits assumed): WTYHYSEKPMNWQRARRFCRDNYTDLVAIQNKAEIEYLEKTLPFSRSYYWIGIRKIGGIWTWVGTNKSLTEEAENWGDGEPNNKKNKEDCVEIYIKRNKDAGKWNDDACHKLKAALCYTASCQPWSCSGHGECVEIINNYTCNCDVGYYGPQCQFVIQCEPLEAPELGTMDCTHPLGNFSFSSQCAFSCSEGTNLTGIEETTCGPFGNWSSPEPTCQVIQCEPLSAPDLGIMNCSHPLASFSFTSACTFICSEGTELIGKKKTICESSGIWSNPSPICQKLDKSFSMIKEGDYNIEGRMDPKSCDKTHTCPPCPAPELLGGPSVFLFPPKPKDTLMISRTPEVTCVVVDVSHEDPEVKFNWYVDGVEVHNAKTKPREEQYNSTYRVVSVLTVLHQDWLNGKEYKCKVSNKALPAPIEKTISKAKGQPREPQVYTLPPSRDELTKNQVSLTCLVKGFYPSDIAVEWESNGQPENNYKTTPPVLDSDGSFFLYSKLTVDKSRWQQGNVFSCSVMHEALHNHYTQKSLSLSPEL

inhibition of binding between biotinylated versican and L-selectin-Ig [1] | inhibition of binding between biotinylated versican and P-selectin [2] | inhibition of binding between biotinylated versican and CD44-Ig [3] | Substance | Ca^2+ mobilization by secondary lymphoid tissue chemokine pre-incubated with glycosaminoglycan [4]
inhibited | inhibited | not remarkable | chondroitin polysulfate [CPS] | did not induce
not inhibited |  | inhibited | chondroitin sulfate A [CS A] | remarkably induced
inhibited | inhibited | inhibited | chondroitin sulfate E [CS E] | did not induce
inhibited | inhibited | inhibited | dermatan polysulfate [DPS] | did not induce
